This passage reports inhibition, IC50 and Plasma cholesterol results from patent US5418239A, “Tricyclic heterocyclic compounds, their production and use” (Takeda Chemical Industries, Ltd., priority 1990, dated 1995).

Experiment [1] deals with T1, Acyl-CoA:cholesterol transferase (ACAT) (Rattus norvegicus, UniProt Q7TQM4).
T1 construct: small intestinal mucosal microsome fraction of a 6-week-old male sprague-Dawley rat; from tissue; host or cells: small intestinal mucosal microsome fraction, 6-week-old male Sprague-Dawley rat
T1 sequence (Q7TQM4 1-524): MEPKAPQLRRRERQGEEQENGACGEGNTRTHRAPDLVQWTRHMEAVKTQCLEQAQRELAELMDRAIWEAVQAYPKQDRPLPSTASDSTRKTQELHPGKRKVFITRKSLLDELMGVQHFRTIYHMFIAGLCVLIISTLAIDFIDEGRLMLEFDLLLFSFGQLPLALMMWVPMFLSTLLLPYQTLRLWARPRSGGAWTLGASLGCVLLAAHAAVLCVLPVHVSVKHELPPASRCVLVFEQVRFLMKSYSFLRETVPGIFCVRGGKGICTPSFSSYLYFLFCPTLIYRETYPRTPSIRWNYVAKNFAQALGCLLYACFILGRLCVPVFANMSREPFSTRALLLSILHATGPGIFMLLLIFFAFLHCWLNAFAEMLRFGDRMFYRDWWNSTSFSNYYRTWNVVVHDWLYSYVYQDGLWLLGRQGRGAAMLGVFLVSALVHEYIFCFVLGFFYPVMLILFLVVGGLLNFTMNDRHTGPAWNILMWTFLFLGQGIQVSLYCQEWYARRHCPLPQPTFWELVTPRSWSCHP
Put plainly: Acyl-CoA:cholesterol transferase (ACAT) inhibitory activity (labeled cholesterol ester production, small intestinal mucosal microsome fraction). The conditions noted are these: rat small intestinal mucosal microsomes; for inhibition at 1 µM: 10^-6 M test compound, read-out: ACAT inhibition rate (%) (labeled cholesterol ester production inhibiting rate); for IC50: plotted at a plurality of concentration levels, read-out: IC50 (50% inhibitory concentration, ACAT). Format: biochemical, male sprague-Dawley rat. The protocol: Samples of ACAT enzyme were prepared from the small intestinal mucosal microsome fraction of a 6-week-old male sprague-Dawley rat fasted for 20 hours in accordance with the procedure described by Heider et al, Journal of Lipid Research 24, 1127 (1982).
ACAT activity was determined in accordance with the method of Helgerud et al., Journal of Lipid Research 22, 271 (1981), by measuring the amount of labeled cholesterol ester produced from [1-^14 C]oloyl-CoA and endogenous cholesterol.
The 50% inhibitory concentration (IC50) determined by plotting at a plurality of concentration levels is also shown.

A further experiment concerns plasma cholesterol. Put plainly: Plasma cholesterol lowering activity in cholesterol-fed rats. Format: in vivo, Male Sprague-Dawley rats. The conditions noted are these: 1% cholesterol diet containing 0.0003% test compound, 7 days; ingested about 0.23-0.24 mg/kg/day; mean ± S.D.; * p < 0.05 (t-test) against control group (181.8 ± 60.4). How it is done:
Male Sprague-Dawley rats aged 7 weeks were divided into groups based on body weight and put on a 1% cholesterol diet (the rat diet supplemented with 0.5% cholic acid and 5% olive oil) containing 0.0003% of the test compound for 7 days. The blood was sampled from surfeited rats between 8:30 and 10:00 a.m. and the plasma cholesterol concentration was enzymatically determined. The amount of the compound ingested was calculated from the food consumption.

As for `O=C(Nc1ccc(F)cc1F)Nc1cnc2cc3c(cc2c1-c1ccccc1Cl)CCC3` [Example 1, N-[4-(2-chlorophenyl)-7,8-dihydro-6H-cyclopenta[g]quinolin-3-yl]-N'-(2,4-difluorophenyl)urea], in experiment [1], the inhibition (in general, the drop in the measured response relative to a control, in per cent) at 1 µM came out at 99.3% and the IC50 turned out to be 3.8 nM. In addition, the Plasma cholesterol in the experiment with plasma cholesterol came to 80.8 ± 18.6 mg/dL.
On to `Cc1ccccc1-c1c(NC(=O)Nc2ccc(F)cc2F)cnc2cc3c(cc12)CCC3` [Example 2, N-[7,8-Dihydro-4-(2-methylphenyl)-6H-cyclopenta[g]-quinolin-3-yl]-N'-(2,4-difluorophenyl)urea], for which, in experiment [1], the inhibition at 1 µM came out at 99.2% and the IC50 stood at 3.9 nM. Moreover, in the experiment with plasma cholesterol, the Plasma cholesterol turned out to be 78.5 ± 10.2 mg/dL.
For the compound `Cc1ccccc1-c1c(NC(=O)Nc2ccc(F)cc2F)c(=O)oc2cc3c(cc12)CCC3` [Example 3, N-(2,4-difluorophenyl)-N'-[4-(2-methylphenyl)-2-oxo-2,6,7,8-tetrahydrocyclopenta[g][1]-benzopyran-3-yl]urea], in experiment [1], the inhibition at 1 µM worked out at 99.5%. The Plasma cholesterol in the experiment on plasma cholesterol worked out at 78.1 ± 12.6 mg/dL.
Take `O=C(Cc1ccc(F)cc1F)Nc1cnc2cc3c(cc2c1-c1ccccc1Cl)CCC3` [Example 4, 4-(2-chlorophenyl)-3-(2,4-difluorophenylacetylamino)-7,8-dihydro-6H-cyclopenta(g)quinoline]: the inhibition at 1 µM in experiment [1] was found to be 91.5%.
`CC(C)(C)c1cc(-c2c(NC(=O)Nc3ccc(F)cc3F)c(=O)oc3cc4c(cc23)CCC4)cc(C(C)(C)C)c1O` [Example 8, N-[4-(3,5-di-tert-butyl-4-hydroxyphenyl)-2-oxo-2,6,7,8-tetrahydrocyclopenta[g] [1]benzopyran-3-yl]-N'-(2,4-difluorophenyl]urea]: the inhibition at 1 µM in experiment [1] came out at 99%.
With `Cc1ccccc1-c1c(NC(=O)Nc2ccc(N(C)C)cc2)c(=O)oc2cc3c(cc12)CCC3` [Example 9, N-(4-dimethylaminophenyl)-N'-[4-(2-methylphenyl)-2-oxo-2,6,7,8-tetrahydrocyclopenta[g] [1]benzo-pyran-3-yl]urea], the inhibition at 1 µM in experiment [1] came to 94.6%.
Regarding `Cc1ccccc1-c1c(NC(=O)Nc2ccc(F)cc2F)c(=O)oc2cc3c(cc12)CCCC3` [Example 10, N-(2,4-difluorophenyl)-N'-[4-(2-methylphenyl)-6,7,8,9-tetrahydro-2-oxo-2H-naphtho[2,3-b]pyran-3-yl]urea], in experiment [1], the inhibition at 1 µM was 98.7%.
As to `COc1nc2cc3c(cc2c(-c2ccccc2Cl)c1NC(=O)Nc1cc(C)c(OC(C)=O)c(C)c1)CCC3` [Example 11, N-(4-acetoxy-3,5-dimethylphenyl)-N'-[4-(2-chlorophenyl)-7,8-dihydro-2-methoxy-6H-cyclopenta[g]-quinolin-3-yl]urea], in experiment [1], the inhibition at 1 µM was found to be 75.6%.
Same read-out and setting: for `CC(=O)Oc1c(C)cc(NC(=O)Nc2c(-c3ccccc3C)c3cc4c(cc3n(C)c2=O)CCC4)cc1C` [Example 12, N-(4-acetoxy-3,5-dimethylphenyl)-N'-[1-methyl-4-(2-methylphenyl)-2-oxo-l,2,7,8-tetrahydro-6H-cyclopenta[g]quinolin-3-yl]urea] the value was 91.1%; for `COc1ccc(C=CC(=O)Nc2c(-c3ccccc3C)c3cc4c(cc3oc2=O)CCC4)cc1OC` [Example 13, 3-(3,4-dimethoxycinnamoylamino) -4-(2-methylphenyl)-7,8-dihydrocyclopenta[g] 1benzopyran-2(6H)-one], 89.9%; for `Cc1ccccc1-c1c(NC(=O)Cc2cc(C(C)(C)C)c(O)c(C(C)(C)C)c2)c(=O)oc2cc3c(cc12)CCC3` [Example 15, 3-(3,5-di-tert-butyl-4-hydroxyphenylacetylamino) -4-(2-methylphenyl)-7,8-dihydrocyclopenta-[g] [1]benzopyran-2(6H)-one], 89.6%.
Turning to `COc1cc(NC(=O)Nc2c(-c3ccccc3C)c3cc4c(cc3oc2=O)CCC4)cc(OC)c1O` [Example 16, N-(4-hydroxy-3,5-dimethoxyphenyl)-N'-[4-(2-methylphenyl)-2-oxo-2,6,7,8-tetrahydrocyclopenta [g] [1]benzopyran-3-yl]urea], the inhibition at 1 µM in experiment [1] was 94.4%.
Turning to `Cc1ccccc1-c1c(NC(=O)Nc2cc(C)c(O)c(C)c2)c(=O)oc2cc3c(cc12)CCC3` [Example 17, N-(4-hydroxy-3,5-dimethylphenyl)-N'-[4-(2-methylphenyl)-2-oxo-2,6,7,8-tetrahydrocyclopenta-[g] [1]benzopyran-3-yl]urea], the inhibition at 1 µM in experiment [1] was 97.6%.
Turning to `Cc1ccccc1-c1c(NC(=O)C=Cc2ccc(O)c(O)c2)c(=O)oc2cc3c(cc12)CCC3` [Example 18, 3-(3,4-dihydroxycinnamoylamino)-4-(2-methylphenyl)-7,8-dihydrocyclopenta [g] [1]benzopyran-2(6H)-one], in experiment [1], the inhibition at 1 µM was determined as 86.9%.
Regarding `Cc1ccccc1-c1c(NC(=O)Nc2ccc(F)cc2F)c(=O)n(C)c2cc3c(cc12)CCC3` [Example 19, N-(2,4-difluorophenyl)-N'-[1-methyl-4-(2-methylphenyl)-2-oxo-l,2,7,8-tetrahydro-6H-cyclopenta-[g]quinolin-3-yl]urea], the inhibition at 1 µM in experiment [1] came out at 98.2%.
